Laboratory results published in patent US8795962B2, “Expression vectors based on modified ribosomal protein promoters and uses thereof in post-transcriptional assessment” (King Faisal Specialist Hospital and Research Center, priority 2008, dated 2014).
Entries after “also recorded” stand apart in the source; their conditions may differ.

Assays:
[1] = tested on: EGFP reporter vectors under the transcriptional control of the ribosomal protein RPS30, RPS23I-M, or RPS30I-M1 sequences; experiment: EGFP reporter under ribosomal protein promoters with control stable 3′UTR, treated with inducers (FIG. 1B); format: cell-based, human; conditions: HEK293 cells, okadaic acid 100 nM or TNF-α 10 ng/ml, added about 20 hr after transfection
Description: (§1) B HEK293 cells in 96-well plates were transfected with 150 ng of EGFP reporter vectors that are under the transcriptional control of the ribosomal protein RPS30, RPS23I-M, or RPS30I-M1 sequences. The EGFP reporter contains control stable 3′UTR. After approximately 20 hr, the cells were treated with the following compounds: okadaic acid (100 nM) or TNF-α (10 ng/ml) to induce post-transcriptional induction, if any. High resolution images were obtained automatically by BD high-content imager. Quantitation was performed with our in-house ProXcell imaging algorithm.

[2] = tested on: RPS30I-M1-IL-8 3′UTR reporter; experiment: RPS30I-M1 EGFP reporter with IL-8 3′UTR (AU-rich elements), post-transcriptional induction (FIG. 3); format: cell-based, human; conditions: HEK293 cells, 3′UTR with 200 bases of IL-8 3′UTR; okadaic acid 100 nM
Description: as §1, with “Selective for post-transcriptional regulation in the RPS30I-M linked-reporter system. HEK293” for “B HEK293”, “protein RPS30I-M1.” for “protein RPS30, RPS23I-M, or RPS30I-M1 sequences.”, “contains either” for “contains”, “stable 3′UTR or 3′UTR which contain 200 bases of IL-8 3′UTR sequences known to contain mRNA destabilization elements, AU-rich elements.” for “stable 3′UTR.”, “or IL-α (3” for “or TNF-α (10”
The AU-rich regions, approximately 200 bases, of TNF-α and IL-8 3′UTR were cloned into the vector. Briefly, a 237 bp region (972-1209 nt: NM_000584, SEQ ID NO. 9) that belongs to the 1250 bp IL-8 3′UTR or 250 bases from TNF-α 3′UTR: (1200-1450 bp, NM_000594, SEQ ID NO. 10) were amplified by RT-PCR using specific primers that contains BamH1 and XbaI restriction sites. The PCR products were cut by BamH I and Xba I sequentially and followed by phenol extraction and ethanol precipitation. The purified cut PCR products were ligated into the EGFP expression vector that has bovine growth hormone 3′UTR that has BamH1 and XbaI sites. […]

[3] = tested on: control RPS30-3′UTR reporter; experiment: RPS30I-M1 EGFP reporter with control stable 3′UTR, post-transcriptional induction (FIG. 3); format: cell-based, human; conditions: HEK293 cells, okadaic acid 100 nM
Description: as §1, with “Selective for post-transcriptional regulation in the RPS30I-M linked-reporter system. HEK293” for “B HEK293”, “protein RPS30I-M1.” for “protein RPS30, RPS23I-M, or RPS30I-M1 sequences.”, “contains either” for “contains”, “stable 3′UTR or 3′UTR which contain 200 bases of IL-8 3′UTR sequences known to contain mRNA destabilization elements, AU-rich elements.” for “stable 3′UTR.”, “or IL-α (3” for “or TNF-α (10”
The RPS30I-M1 with control 3′UTR, RPS30I-M1 with IL-8 3′UTR, and RPS30I-M1 with TNF-α 3′UTR vectors were tested for use to assess post-transcriptional regulation. Transfected cells were stimulated with the following compounds, IL-α or okadaic acid. Any compound or modulators such as protein, expression vector, or small inhibitory RNA, or any other RNA vector can be tested for the post-transcriptional effects, i.e., induction or repression.

[4] = tested on: EGFP reporter vector under the transcriptional control of the CMV promoter; experiment: EGFP reporter under CMV promoter, treated with inducers (FIG. 2); format: cell-based; conditions: HEK293 cells, TNF-α 10 ng/ml
Description: (§2) HEK293 cells in 96-well plates were transfected with 150 ng of EGFP reporter vectors that are under the transcriptional control of the CMV or SV40 promoter. After approximately 20 hr, the cells were treated with the following compounds: okadaic acid (100 nM) or TNF-α (10 ng/ml) to induce post-transcriptional induction, High resolution images were obtained automatically by BD high-content imager. Quantitation was performed with ProXcell imaging algorithm.

[5] = tested on: EGFP reporter vector under the transcriptional control of the SV40 promoter; experiment: EGFP reporter under SV40 promoter, treated with inducers (FIG. 2); format: cell-based; conditions: HEK293 cells, TNF-α 10 ng/ml
Description: as §2

C=C1[C@@H](O)[C@@H]2O[C@]3(CC[C@H](/C=C/[C@@H](C)[C@@H]4CC(C)=C[C@@]5(O[C@H](C[C@@](C)(O)C(=O)O)CC[C@H]5O)O4)O3)CC[C@H]2O[C@@H]1[C@@H](O)C[C@H](C)[C@H]1O[C@@]2(CCCCO2)CC[C@H]1C [okadaic acid]
induction of EGFP reporter fluorescence [1]: not transcriptionally inducible
induction of EGFP reporter fluorescence ([1]; listed as okdadaic acid): no induction
post-transcriptional induction of EGFP reporter [2]: significantly increases
post-transcriptional induction of EGFP reporter [3]: not

TNF-α
induction of EGFP reporter fluorescence [1]: no induction; also recorded: not transcriptionally inducible
transcriptional induction of EGFP reporter [4]: respond to transcriptional induction
transcriptional induction of EGFP reporter [5]: respond to transcriptional induction
